# What was measured:
# GPR142 = biological target: T1, GPR142 (Mus musculus, UniProt Q7TQN9); experiment: Intraperitoneal glucose tolerance test (IPGTT); format: in vivo; settings: male C57BL/6 mice, oral dose 90 min prior to 2 g/kg i.p. glucose challenge
# T1 construct: from tissue; host or cells: whole animal, male C57BL/6 mice
# T1 sequence (Q7TQN9 1-365): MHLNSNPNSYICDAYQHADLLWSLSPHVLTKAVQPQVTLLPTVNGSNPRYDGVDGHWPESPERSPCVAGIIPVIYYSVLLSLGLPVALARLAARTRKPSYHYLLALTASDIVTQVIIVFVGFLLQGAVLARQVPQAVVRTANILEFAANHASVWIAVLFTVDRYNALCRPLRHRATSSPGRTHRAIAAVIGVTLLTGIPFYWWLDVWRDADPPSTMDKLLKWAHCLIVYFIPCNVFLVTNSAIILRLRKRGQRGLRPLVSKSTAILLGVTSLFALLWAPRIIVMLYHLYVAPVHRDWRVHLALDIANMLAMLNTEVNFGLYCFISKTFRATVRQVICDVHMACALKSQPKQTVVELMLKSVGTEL
# Description: Intraperitoneal Glucose Tolerance Tests (IPGTT)
# The IPGTT assay is used to examine the ability of a compound to activate GPR142 in vivo resulting in anti-diabetic efficacy, i.e. reduction in plasma glucose levels. Male C57BL/6 mice (8-10 weeks of age) are fed normal rodent chow diet and water ad libitum. On the night before the study, fast the animals overnight in clean cages. On the morning of the study, orally dose the animals with either vehicle or a test compound at the indicated doses 90 min prior to the glucose challenge (2 g/kg) by intraperitoneal injection. Determine the blood glucose levels from tail bleeds taken immediately prior to compound dosing (−90 min) and 0, 15, 30, and 60 min after glucose challenge using handheld glucometers. Use the blood glucose profile from t=0 to t=60 min to calculate an area under the curve (AUC) for each treatment. Calculate the percent glucose lowering. The AUC is calculated for each treatment group with respect to the AUC of vehicle group. A compound with a reduction in glucose AUC (P<0.05) is considered positive in the assay.
# human GPR142 = biological target: T2, human GPR142 (Homo sapiens, UniProt Q7Z601); experiment: GPR142 agonist effect as measured by IP-1 assay (IP-One HTRF); format: cell-based
# T2 construct: expressed in transfected cells; host or cells: HEK293 (kept under G418 selection)
# T2 sequence (Q7Z601 1-462): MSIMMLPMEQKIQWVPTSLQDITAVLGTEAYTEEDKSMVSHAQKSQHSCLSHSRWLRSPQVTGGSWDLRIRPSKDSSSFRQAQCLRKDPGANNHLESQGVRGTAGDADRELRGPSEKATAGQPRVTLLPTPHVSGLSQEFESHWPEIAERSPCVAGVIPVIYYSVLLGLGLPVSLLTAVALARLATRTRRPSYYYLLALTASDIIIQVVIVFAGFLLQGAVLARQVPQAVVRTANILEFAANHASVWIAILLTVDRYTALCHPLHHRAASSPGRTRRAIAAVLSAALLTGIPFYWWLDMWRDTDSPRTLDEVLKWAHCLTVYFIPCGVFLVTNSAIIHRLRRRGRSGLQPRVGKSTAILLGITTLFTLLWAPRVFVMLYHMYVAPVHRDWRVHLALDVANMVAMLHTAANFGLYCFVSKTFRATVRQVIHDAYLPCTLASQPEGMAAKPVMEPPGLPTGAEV
# Description: Biological Assays GPR142 Agonist Effect as Measured by IP-1 Assay
# HEK293 cells expressing human GPR142 are maintained in DMEM supplemented with 10% FBS and 800 μg/ml G418 (Geneticin®) at 37° C. and 5% CO2. Plate the cells in 384 well plates at 5000 cells per well and allow 18 hrs for attachment. Add the test compound at varying concentrations ranging from 30 μM to 1 nM. Incubate the cells for 1 hr. IP-1 measurements are performed using an IP-One HTRF® assay kit (Cisbio) according to manufacturer's protocol using an assay buffer containing 1×HBSS (+Ca, +Mg), 0.1% BSA, 50 mM LiCl and 20 mM HEPES, pH 7.2. Stop the reaction by the addition of IP1-d2 (IP-1 coupled to an organic HTRF acceptor) followed by cryptate solution (http://www.htrf.com/usa/htrf-chemistry). Incubate the plates at 25° C. for 1 hr. Read the fluorescence in an Envision instrument at 665 nm and 620 nm wavelength. Calculate the ratio of 665 nm/620 nm fluorescence and convert to IP-1 levels using an IP-1 standard curve. The data is fit to a 4 parameter-fit logistics to determine EC50 values.
compound,measurement,setting,value
Cc1ncn(C)c1-c1nnc([C@H]2CCC[C@@H](N(C)C(=O)c3cccc(Cl)c3)C2)[nH]1 [Example 1],"IPGTT outcome (reduction in glucose AUC, P<0.05, is positive)",GPR142,positive
same,ED50 (glucose AUC lowering in IPGTT),GPR142; AUC t=0 to 60 min,0.25 mpk
same,EC50,"human GPR142; HEK293 cells expressing human GPR142, 1 hr incubation, IP-1 HTRF, read-out: hGPR142 IP1 EC50",14.4 nM
same,hGPR142 IP1 relative efficacy,"human GPR142; HEK293 cells expressing human GPR142, IP-1 HTRF",110%

# From US11214562B2, “Cyclohexyl benzamide compounds” (Eli Lilly and Company, priority 2016, dated 2022)
